From patent publication US20150018301A1, “LRRK-2-Mediated Neuronal Toxicity” (THE JOHNS HOPKINS UNIVERSITY, priority 2009, published 2015)
pIC50: −log10 of the molar value.

Legend:
LRRK2 WT [1] = biological target: T1, LRRK2 WT (Homo sapiens, UniProt Q5S007); test: In vitro kinase assay: LRRK2 autophosphorylation; assay type: biochemical; details: for pIC50: mean of three experiments; for LRRK2 autophosphorylation Average ± SEM: compound 16 μM, phosphorylation normalized to absence of compound, mean ± S.E.M. of three experiments; for effect on LRRK2 autophosphorylation: screen at 16 μM
LRRK2 WT [2] = biological target: T1, LRRK2 WT; test: In vitro kinase assay: LRRK2-mediated MBP phosphorylation; assay type: biochemical; details: for pIC50: mean of three experiments; for MBP phosphorylation Average ± SEM: compound 16 μM, 30° C., 15 min, normalized to absence of compound, mean ± S.E.M. of three experiments; for effect on LRRK2-mediated phosphorylation of MBP: screen at 16 μM
LRRK2 G2019S [3] = biological target: T2, LRRK2 G2019S (Homo sapiens, UniProt Q5S007, G2019S); test: In vitro kinase assay: G2019S LRRK2 autophosphorylation; assay type: biochemical; details: mean of three experiments
Protocol: (§1) Transfection was performed by using Fugene HD reagent (Roche Applied Science) according to the manufacturer's instruction. For purification of recombinant LRRK1 and LRRK2 proteins, ACTA Purifier (GE Healthcare) FPLC system was used.
(§2) Resulting lysates were rotated at 4° C. for 30 min followed by centrifugation at 20,000×g for 15 min. The supernatants were injected into a GSTrap FF column pre-equilibrated with PBS at 0.5. mL/min flow after filtration using a 0.2 μm syringe filter (Corning). The bound proteins were eluted with buffer containing 10 mM GSH (Sigma), 150 mM NaCl, and 50 mM Tris-HCl (pH 8.0).
(§3) The in vitro kinase assay was performed as previously described. […] Recombinant LRRK2 and MBP or CST-4E-BP1 were combined before the kinase reaction. LRRK2 autophosphorylation is LRRK2 itself phosphorylation and MBP or GST-4E-BP1 phosphorylation is induced by LRRK2. After the kinase reaction, combined LRRK2 and MBP or GST-4E-BP1 were loaded on SDSPAGE and phosphorylated LRRK2 and MBP or GST-4E-BP1 could be detected separately an a single gel. Recombinant proteins and inhibitors were incubated at 30° C. in kinase assay buffer containing 20 mM Hepes (pH 7.4), 5 mM EGTA, and 20 mM β-glycerol phosphate. 0.5 μg MBP (Upstate) or 0.5 μg GST-4B-BP1, 50 μM ATP (Sigma), 20 mM MgCl2, and 1 μCi [γ-32P] ATP (PerkinElmer) was added after 5 min. The reaction was performed at 30° C. to reduce non-specific 32P incorporation for 15 min and terminated by the addition of 5×Laemmili sample buffer. […] Gels were stained by coomassie brilliant blue after fixation with 10% acetic acid and 40% methanol and then exposed to a Phosphoimager. Data were analyzed by ImageQuant 6.0 software.
(§4) To calculate the IC50 value, a dose-response curve was constructed and non-linear regression analysis using the equation for a sigmoid plot.

LRRK2 G2019S [4] = biological target: T2, LRRK2 G2019S; test: In vitro kinase assay: G2019S LRRK2-mediated MBP phosphorylation; assay type: biochemical; details: mean of three experiments
Protocol: as §1, §2, §3, §4

LRRK1 WT [5] = biological target: T3, LRRK1 WT (Homo sapiens, UniProt Q38SD2); test: In vitro kinase assay: LRRK1 autophosphorylation; assay type: biochemical
LRRK1 WT [6] = biological target: T3, LRRK1 WT; test: In vitro kinase assay: LRRK1-mediated MBP phosphorylation; assay type: biochemical; details: for pIC50: Table 3, mean of three experiments
[7] = system: rat primary cortical neuronal cultures transfected with G2019S LRRK2; test: LRRK2-induced neuronal toxicity in primary cortical neuronal cultures (neurite shortening, TUNEL); assay type: cell-based; details: 0.5 μM
Protocol: Representative photomicrographs of each experimental group. LRRK2 and eGFP constructs were combined in a molar ratio of 10:1, respectively, and transfected by using of Lipofectamine 2000 (Invitrogen) at DIV (day in vitro) 14 into rat primary cortical neuronal cultures. Compounds (0.5 μM) were administrated at the time of transfection and continued until toxicity assessments. On DIV 16, images were collected on a Zeiss Automatic stage with Axiovision 6.0. (a) Low magnified photomicrographs; (b and c) High magnified photomicrographs. Scale bar=50 μm (a) and 10 μm (b and c);
Primary cortical neuronal cultures were prepared from gestational day 15 fetal rats as previously described. Gonzalez-Zulueta, M., et al. Manganese superoxide dismutase protects nNOS neurons from NMDA and nitric oxide-mediated neurotoxicity. J Neurosci 18, 2040-2055 (1998). All procedures used in this study were approved by the Johns Hopkins Medical Institute Animal Care Committee. Cell viability assays and DNA fragmentation (TUNEL assay) were performed as previously described. Smith, W. W., et al. Kinase activity of mutant LRRK2 mediates neuronal toxicity. Nat Neurosci 9, 1231-1233 (2006); West, A. B., et al. Parkinson's disease-associated mutations in LRRK2 link enhanced GTP-binding and kinase activities to neuronal toxicity. Hum Mol Genet 16, 223-232 (2007). The cortex was dissected, incubated for 15 min in 0.027% trypsin, and then transferred to modified Eagle's medium (MEM)/10% horse serum/10% fetal bovine serum/2 mM glutamine followed by trituration. Dissociated cells were plated at a density of 3-4×10^5 cells per well in polyornithine-coated plates. After 4 days the cells were treated with 10 μg of 5-fluoro-2′-deoxyuridine to prevent proliferation of nonneuronal cells. Cells were maintained in MEM/5% horse serum/2 mM glutamine in 8% CO2 incubator. The medium was changed twice weekly. For assessment of LRRK2-mediated neuronal injury, LRRK2 and eGFP constructs were combined in a molar ratio of 10:1, respectively, and transfected into neurons with Lipofectamine 2000 (Invitrogen) at DIV (day in vitro) 14. On DIV 16, images were collected on a Zeiss Automatic stage with Axiovision 6.0. Viable neurons were defined as having at least one smooth extension (neurite) with twice the length of the cell body. The percentage of eGFP-positive injured neurons in each experimental group relative to those neurons transfected with eGFP was calculated.

[8] = system: C. elegans expressing LRRK2 G2019S in DA neurons; test: Transgenic nematode model of LRRK2 G2019S-induced DA neurodegeneration; assay type: in vivo, Caenorhabditis elegans
Protocol: Nematodes were maintained following the standard procedures. Brenner, S., 771 GENETICS 71-94 (1974). Isogenic worm strains expressing LRRK2, G2019S, UAXX [baInlX; Pdat-1::LRRK2 G2019S, Pdat-1::gfp] were generated via microinjection, integrated into the genome and out-crossed three times. Age-synchronized worms were obtained by treating gravid adults with 2% sodium hypochlorite and 0.5M NaOH to isolate embryos. Lewis, J. A., 48 METHODS CELL BIOL. 3-29 (1995). These embryos were treated with indicated concentrations of LRRK2 kinase inhibitors, which were dissolved in 1% DSMO, for 24 h. at 20° C. with gentle shaking. The worms were then washed and transferred into NGM plates seeded with OP50 bacteria, and incubated as 20° C. The six anterior DA neurons (4 CEP and 2 ADE neurons) of 30 animals/trial were examined for neurodegeneration when the animals were 7 days old. A total of 90 animals for each treatment were analyzed (3 trials of 30 animals/trial). […] See Hamamichi et al., 105(2) PROC. NATL. ACAD. SCI. USA 728-33 (2008); and Cao et al, 25 J. NEUROSCI. 3801-12 (2005). For each trial, 30 worms were transferred into a 2% agarose pad, immobilized with 2 mM levamisole, and analyzed using Nikon Eclipse E800 epifluorescence microscope equipped with Endow GFP HYQ filter cube (Chrom Technology, Rockingham, Vt.). Images were captured with a Cool Snap CCD camera (Photometrics, Tucson, Ariz.) driven by MetaMorph software (Universal Imaging, West Chester, Pa.).
To determine whether the LRRK2 kinase inhibitors protect against LRRK2-induced neurodegeneration in vivo, the LRRK2 kinase inhibitors were tested in the C. elegans model of LRRK2 G2019S-induced neurodegeneration described above. The DA transporter (dat-1) was used to direct expression of LRRK2 G2019S in DA neurons.

T2 sequence (Q5S007 whole entry G2019S): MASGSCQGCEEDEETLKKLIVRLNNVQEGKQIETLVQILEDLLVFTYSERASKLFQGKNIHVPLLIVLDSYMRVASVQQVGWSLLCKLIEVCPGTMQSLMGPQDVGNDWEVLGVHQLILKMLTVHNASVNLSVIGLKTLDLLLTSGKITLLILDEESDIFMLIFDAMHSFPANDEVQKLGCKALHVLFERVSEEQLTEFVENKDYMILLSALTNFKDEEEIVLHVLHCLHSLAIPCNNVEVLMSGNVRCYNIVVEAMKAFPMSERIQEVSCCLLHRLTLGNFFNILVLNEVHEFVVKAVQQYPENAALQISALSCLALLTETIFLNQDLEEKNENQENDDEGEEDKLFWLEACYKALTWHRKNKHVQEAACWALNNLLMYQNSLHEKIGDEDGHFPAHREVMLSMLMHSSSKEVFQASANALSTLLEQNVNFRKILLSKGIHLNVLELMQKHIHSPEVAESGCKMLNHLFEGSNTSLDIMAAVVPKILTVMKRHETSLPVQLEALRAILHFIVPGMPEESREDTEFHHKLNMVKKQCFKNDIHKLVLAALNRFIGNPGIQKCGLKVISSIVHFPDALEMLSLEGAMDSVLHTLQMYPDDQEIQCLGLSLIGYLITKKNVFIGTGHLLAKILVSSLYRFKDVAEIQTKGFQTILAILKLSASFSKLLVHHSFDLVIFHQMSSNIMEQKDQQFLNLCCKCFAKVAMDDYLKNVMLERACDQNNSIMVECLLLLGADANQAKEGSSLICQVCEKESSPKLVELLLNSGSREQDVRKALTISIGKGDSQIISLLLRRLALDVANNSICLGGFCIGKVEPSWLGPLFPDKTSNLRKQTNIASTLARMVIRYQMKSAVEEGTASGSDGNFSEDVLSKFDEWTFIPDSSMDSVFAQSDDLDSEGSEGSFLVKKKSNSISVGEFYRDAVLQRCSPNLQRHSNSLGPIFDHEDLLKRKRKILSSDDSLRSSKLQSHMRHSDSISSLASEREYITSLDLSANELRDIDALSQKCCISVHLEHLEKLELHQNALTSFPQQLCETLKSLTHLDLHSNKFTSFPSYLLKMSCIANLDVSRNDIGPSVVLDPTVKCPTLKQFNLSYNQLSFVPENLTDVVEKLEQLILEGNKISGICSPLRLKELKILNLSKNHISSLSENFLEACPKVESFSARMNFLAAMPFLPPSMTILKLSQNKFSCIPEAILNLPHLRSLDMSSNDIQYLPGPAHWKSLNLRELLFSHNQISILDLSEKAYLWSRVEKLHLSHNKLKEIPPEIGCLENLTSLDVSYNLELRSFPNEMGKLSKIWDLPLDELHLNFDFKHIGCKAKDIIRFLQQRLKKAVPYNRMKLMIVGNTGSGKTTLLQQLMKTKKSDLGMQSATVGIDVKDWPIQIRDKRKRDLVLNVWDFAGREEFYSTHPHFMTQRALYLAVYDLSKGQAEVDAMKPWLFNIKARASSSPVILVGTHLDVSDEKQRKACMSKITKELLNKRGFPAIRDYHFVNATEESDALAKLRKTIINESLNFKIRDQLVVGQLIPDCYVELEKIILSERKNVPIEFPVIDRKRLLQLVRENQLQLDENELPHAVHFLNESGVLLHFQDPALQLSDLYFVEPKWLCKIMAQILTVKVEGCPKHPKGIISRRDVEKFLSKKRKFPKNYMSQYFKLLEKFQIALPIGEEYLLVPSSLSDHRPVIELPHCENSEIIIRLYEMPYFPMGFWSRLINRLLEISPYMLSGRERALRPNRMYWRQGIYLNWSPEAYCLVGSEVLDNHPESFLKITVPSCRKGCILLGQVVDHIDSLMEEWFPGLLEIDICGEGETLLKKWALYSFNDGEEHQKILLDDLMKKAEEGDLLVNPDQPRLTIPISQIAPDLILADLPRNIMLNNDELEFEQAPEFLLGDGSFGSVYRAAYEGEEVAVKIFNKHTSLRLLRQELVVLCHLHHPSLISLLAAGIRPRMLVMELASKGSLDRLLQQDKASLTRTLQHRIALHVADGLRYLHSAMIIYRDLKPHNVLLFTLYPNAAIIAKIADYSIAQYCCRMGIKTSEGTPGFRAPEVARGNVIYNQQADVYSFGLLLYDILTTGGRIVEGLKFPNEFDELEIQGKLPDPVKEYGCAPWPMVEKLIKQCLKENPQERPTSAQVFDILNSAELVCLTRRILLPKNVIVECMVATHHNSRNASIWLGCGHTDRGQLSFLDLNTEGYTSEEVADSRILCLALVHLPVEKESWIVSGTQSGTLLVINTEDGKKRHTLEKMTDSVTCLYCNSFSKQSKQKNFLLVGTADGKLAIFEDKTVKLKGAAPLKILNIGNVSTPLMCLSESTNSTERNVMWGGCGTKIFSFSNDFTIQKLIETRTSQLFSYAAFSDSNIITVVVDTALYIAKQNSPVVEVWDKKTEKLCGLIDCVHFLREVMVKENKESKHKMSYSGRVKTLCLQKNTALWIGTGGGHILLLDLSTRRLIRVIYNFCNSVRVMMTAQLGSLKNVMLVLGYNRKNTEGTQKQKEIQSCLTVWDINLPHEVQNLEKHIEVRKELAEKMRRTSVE
T3 sequence (Q38SD2 whole entry): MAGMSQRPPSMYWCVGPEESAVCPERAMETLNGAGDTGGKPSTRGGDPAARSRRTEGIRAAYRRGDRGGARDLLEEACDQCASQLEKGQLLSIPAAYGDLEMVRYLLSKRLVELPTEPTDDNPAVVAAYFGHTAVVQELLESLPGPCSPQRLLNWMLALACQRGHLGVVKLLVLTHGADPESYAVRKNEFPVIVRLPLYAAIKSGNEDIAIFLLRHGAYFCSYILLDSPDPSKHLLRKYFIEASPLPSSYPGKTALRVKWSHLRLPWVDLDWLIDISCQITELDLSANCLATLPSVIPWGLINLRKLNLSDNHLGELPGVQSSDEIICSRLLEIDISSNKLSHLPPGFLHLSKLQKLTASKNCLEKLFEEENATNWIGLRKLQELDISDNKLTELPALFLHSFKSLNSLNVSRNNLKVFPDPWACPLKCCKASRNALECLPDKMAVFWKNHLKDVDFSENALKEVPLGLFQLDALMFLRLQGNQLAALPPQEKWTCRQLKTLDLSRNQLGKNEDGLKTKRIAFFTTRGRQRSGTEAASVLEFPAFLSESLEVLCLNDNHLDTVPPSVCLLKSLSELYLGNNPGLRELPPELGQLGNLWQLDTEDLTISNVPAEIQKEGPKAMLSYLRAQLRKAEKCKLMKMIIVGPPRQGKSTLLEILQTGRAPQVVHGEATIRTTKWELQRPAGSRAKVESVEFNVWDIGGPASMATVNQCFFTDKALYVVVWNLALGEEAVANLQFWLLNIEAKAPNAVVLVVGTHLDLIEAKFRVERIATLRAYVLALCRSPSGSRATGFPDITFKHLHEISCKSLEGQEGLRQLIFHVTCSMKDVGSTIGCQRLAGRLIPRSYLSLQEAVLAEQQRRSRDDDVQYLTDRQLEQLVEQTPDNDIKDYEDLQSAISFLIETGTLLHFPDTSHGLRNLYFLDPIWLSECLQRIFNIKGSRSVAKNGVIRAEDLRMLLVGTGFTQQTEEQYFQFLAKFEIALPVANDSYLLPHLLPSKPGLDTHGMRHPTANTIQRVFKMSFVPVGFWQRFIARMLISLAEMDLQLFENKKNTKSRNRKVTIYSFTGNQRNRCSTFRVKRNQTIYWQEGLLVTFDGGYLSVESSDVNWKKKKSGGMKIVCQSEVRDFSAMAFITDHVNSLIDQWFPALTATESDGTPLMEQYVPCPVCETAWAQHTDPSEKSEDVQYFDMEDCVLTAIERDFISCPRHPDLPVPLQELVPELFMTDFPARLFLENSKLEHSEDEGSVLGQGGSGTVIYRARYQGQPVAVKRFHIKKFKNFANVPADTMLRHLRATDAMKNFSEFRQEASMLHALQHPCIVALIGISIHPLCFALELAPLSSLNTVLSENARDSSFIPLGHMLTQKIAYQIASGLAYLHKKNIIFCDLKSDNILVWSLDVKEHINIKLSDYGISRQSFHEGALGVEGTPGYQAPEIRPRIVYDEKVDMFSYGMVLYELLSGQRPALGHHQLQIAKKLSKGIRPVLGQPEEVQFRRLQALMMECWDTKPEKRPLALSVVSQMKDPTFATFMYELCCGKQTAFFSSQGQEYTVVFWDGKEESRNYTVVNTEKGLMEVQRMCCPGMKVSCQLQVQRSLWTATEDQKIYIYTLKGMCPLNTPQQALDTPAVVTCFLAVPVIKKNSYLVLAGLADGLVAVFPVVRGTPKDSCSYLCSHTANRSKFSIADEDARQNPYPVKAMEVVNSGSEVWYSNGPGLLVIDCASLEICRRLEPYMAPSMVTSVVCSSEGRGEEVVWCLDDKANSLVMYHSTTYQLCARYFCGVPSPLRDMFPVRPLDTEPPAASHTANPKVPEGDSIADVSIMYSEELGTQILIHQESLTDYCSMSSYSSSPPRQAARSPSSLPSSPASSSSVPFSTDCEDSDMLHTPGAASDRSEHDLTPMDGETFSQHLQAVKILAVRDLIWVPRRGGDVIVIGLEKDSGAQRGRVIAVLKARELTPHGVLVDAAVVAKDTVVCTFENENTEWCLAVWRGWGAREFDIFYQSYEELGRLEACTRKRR
T1 sequence (Q5S007 whole entry): as the sequence (Q5S007 whole entry G2019S) above, with S2019G counted along it

Molecule | pIC50 (LRRK2 WT [1]; Table 2) | LRRK2 autophosphorylation Average ± SEM (LRRK2 WT [1]) | effect on LRRK2 autophosphorylation (LRRK2 WT [1]) | pIC50 (LRRK2 WT [2]; Table 2) | MBP phosphorylation Average ± SEM (LRRK2 WT [2]) | effect on LRRK2-mediated phosphorylation of MBP (LRRK2 WT [2]) | pIC50 (LRRK2 G2019S [3]; Table 2) | pIC50 (LRRK2 G2019S [4]; Table 2) | further results
COc1c(C=O)c(O)cc2c1C(=O)c1ccccc1C2=O [Inhibitor 22, Damnacanthal, reference compound] | 4.72 | 34.7 ± 6.2 % of control | substantially inhibited | 5.11 | 35.7 ± 10.3 % of control | substantially inhibited | 5.28 | 5.02 | 
CNC(=O)c1cc(Oc2ccc(NC(=O)Nc3ccc(Cl)c(C(F)(F)F)c3)cc2)ccn1 [Sorafenib] |  |  |  |  |  |  |  |  | effect on LRRK1 autophosphorylation (LRRK1 WT [5]): minimal to no effect; effect on LRRK1 MBP phosphorylation (LRRK1 WT [6]): minimal to no effect; pIC50 (LRRK1 WT [6]): 4.86; G2019S LRRK2 toxicity [7]: completely protected; worms with wild-type DA neurons (4 CEP and 2 ADE) ([8]; 25 μM, 7-day-old worms, n=90, 48% with 1% DMSO): 62%; rescue of DA neurodegeneration ([8]; 7 day-old worms): protect worms from neurodegeneration
Raf inhibitor IV |  |  |  |  |  |  |  |  | selectivity for LRRK2 kinase activity (LRRK2 WT [1]; LRRK2 versus LRRK1 kinase activity): relatively selective; pIC50 (LRRK2 WT [1]; Table 3): 5.27; pIC50 (LRRK2 WT [2]; Table 3): 5.44; pIC50 (LRRK2 G2019S [3]; Table 3): 5.40; pIC50 (LRRK2 G2019S [4]; Table 3): 5.19; effect on LRRK1 autophosphorylation (LRRK1 WT [5]): minimal to no effect; effect on LRRK1 MBP phosphorylation (LRRK1 WT [6]): minimal to no effect; pIC50 (LRRK1 WT [6]): 4.67
Nc1ncnc2c1c(I)cn2[C@@H]1O[C@H](CO)[C@@H](O)[C@H]1O [Inhibitor 49, 5-iodo-tubercidin, reference compound] | 5.49 | 29.4 ± 14.7 % of control | substantially inhibited | 4.83 | 39.3 ± 9.9 % of control | substantially inhibited | 5.37 | 5.47 | 
N#CC(C#N)=Cc1ccc([N+](=O)[O-])c(O)c1 [Inhibitor 26] |  | 82.3 ± 10.5 % of control |  |  | 114.3 ± 14.1 % of control |  |  |  | 
N#CC(=C(/N)Sc1ccccc1N)/C(C#N)=C(\N)Sc1ccccc1N [Inhibitor 2] |  | 86.9 ± 10.3 % of control |  |  | 101.0 ± 105 % of control |  |  |  | 

Continued, in another order:

pIC50 (LRRK2 WT [1]; Table 2) | LRRK2 autophosphorylation Average ± SEM (LRRK2 WT [1]) | effect on LRRK2 autophosphorylation (LRRK2 WT [1]) | pIC50 (LRRK2 WT [2]; Table 2) | MBP phosphorylation Average ± SEM (LRRK2 WT [2]) | effect on LRRK2-mediated phosphorylation of MBP (LRRK2 WT [2]) | pIC50 (LRRK2 G2019S [3]; Table 2) | pIC50 (LRRK2 G2019S [4]; Table 2) | Molecule | further results
 |  |  |  |  | no effect |  |  | COc1ccc(S(=O)(=O)N(CCO)c2ccccc2CN(C)C/C=C/c2ccc(Cl)cc2)cc1 [Inhibitor 41, KN-93] | effect on LRRK1 autophosphorylation (LRRK1 WT [5]): no effect; effect on LRRK1 MBP phosphorylation (LRRK1 WT [6]): no effect
5.43 | 18.3 ± 22.8 % of control | substantially inhibited | 5.51 | 31.2 ± 12.1 % of control | substantially inhibited | 5.47 | 5.30 | O=C1c2ccccc2-c2n[nH]c3cccc1c23 [Inhibitor 68, SP600125, reference compound] | 
5.28 | 16.1 ± 8.8 % of control | substantially inhibited | 5.66 | 13.0 ± 8.2 % of control | substantially inhibited | 4.77 | 5.58 | CN(C)CCCn1cc(C2=C(c3c[nH]c4ccccc34)C(=O)NC2=O)c2ccccc21 [Inhibitor 31, GP109203X, reference compound] | 
5.79 | 5.4 ± 3.0 % of control | substantially inhibited | 7.30 | 26.0 ± 38.5 % of control | substantially inhibited | 5.35 | 5.29 | Cn1cc(C2=C(c3cn(CCCSC(=N)N)c4ccccc34)C(=O)NC2=O)c2ccccc21 [Inhibitor 33, Ro31-8220, reference compound] | 
 | 95.3 ± 5.9 % of control |  |  | 77.2 ± 86.4 % of control |  |  |  | Nc1ncc2[nH]cnc2n1 [Inhibitor 44, 2-aminopurine] | 
